The values below come from BindingDB's records for doi:10.1021/jm990135j (Taisho Pharmaceutical, 1999).

Where a name gives a salt, the structure may show the parent alone. A value given as a limit tells only on which side of the number the result lay.

Experiment [1] is described as follows: In vitro binding affinity at Sigma opioid receptors on guinea pig brain membranes by [3H]3-PPP displacement.
The target of experiment [2] is Sigma non-opioid intracellular receptor 1 (Cavia porcellus) (UniProt Q60492). In words: In vitro binding affinity at Sigma opioid receptors on guinea pig brain membranes by [3H]-3-PPP displacement.
Experiment [3] deals with Sigma-2 receptor (guinea pig). In words: TIn vitro binding affinity at Sigma opioid receptor type 2 on guinea pig brain membranes by [3H]DTG displacement in the presence of […].

Sequence of Sigma non-opioid intracellular receptor 1 (Cavia porcellus) (Q60492 whole entry, looked up): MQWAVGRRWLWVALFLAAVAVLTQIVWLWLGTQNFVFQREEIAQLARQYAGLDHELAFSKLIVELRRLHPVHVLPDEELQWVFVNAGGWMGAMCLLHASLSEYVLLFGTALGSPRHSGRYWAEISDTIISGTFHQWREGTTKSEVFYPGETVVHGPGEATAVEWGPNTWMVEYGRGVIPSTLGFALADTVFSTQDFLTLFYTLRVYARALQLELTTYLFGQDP

As a reminder, the IC50 is the concentration needed to halve the response being measured. For `CCCNC(C)Cc1ccc(OC)c(OCCc2ccccc2)c1` (centres undefined) [[2-(4-Methoxy-3-phenethyloxy-phenyl)-1-methyl-ethyl]-propyl-amine; hydrochloride], in experiment [1], the IC50 is 10 nM.
In experiment [2], `CCCC(N)(CCC)Cc1ccc(OC)c(OCCc2ccccc2)c1` [1-(4-Methoxy-3-phenethyloxy-benzyl)-1-propyl-butylamine; compound with (E)-but-2-enedioic acid] yielded an IC50 greater than 1000 nM.
Turning to `CCCCCCC(Cc1ccc(OC)c(OCCc2ccccc2)c1)N(CCC)CCC` (centres undefined) [[1-(4-Methoxy-3-phenethyloxy-benzyl)-heptyl]-dipropyl-amine], the IC50 in experiment [1] was 150 nM.
Take `CCCCCCC(Cc1ccc(OC)c(OCCc2ccccc2)c1)NCCC` (centres undefined) [[1-(4-Methoxy-3-phenethyloxy-benzyl)-heptyl]-propyl-amine]: the IC50 is 230 nM in experiment [3] and 9 nM in experiment [1].
In experiment [1], `CCCCCCCCC(N)Cc1ccc(OC)c(OCCc2ccccc2)c1` (centres undefined) [1-(4-Methoxy-3-phenethyloxy-benzyl)-nonylamine] came in with an IC50 greater than 1000 nM.
`CCCCC(Cc1ccc(OC)c(OCCc2ccccc2)c1)N(CCC)CCC` (centres undefined) [[1-(4-Methoxy-3-phenethyloxy-benzyl)-pentyl]-dipropyl-amine]: in experiment [1], the IC50 was 29 nM.
Regarding `CCCC(Cc1ccc(OC)c(OCCc2ccccc2)c1)N(CCC)CCC` (centres undefined) [[1-(4-Methoxy-3-phenethyloxy-benzyl)-butyl]-dipropyl-amine], the IC50 in experiment [3] came out at 420 nM; in experiment [1], 9.5 nM.
On to `CCCCCCCC(N)Cc1ccc(OC)c(OCCc2ccccc2)c1` (centres undefined) [1-(4-Methoxy-3-phenethyloxy-benzyl)-octylamine], for which the IC50 in experiment [1] stood at 420 nM.
For `COc1ccc(CC(C)N)cc1OCCc1ccccc1` (centres undefined) [2-(4-Methoxy-3-phenethyloxy-phenyl)-1-methyl-ethylamine; hydrochloride], the IC50 in experiment [1] is greater than 1000 nM.
As for `CCCCCCCC(Cc1ccc(OC)c(OCCc2ccccc2)c1)N(CCC)CCC` (centres undefined) [[1-(4-Methoxy-3-phenethyloxy-benzyl)-octyl]-dipropyl-amine], the IC50 in experiment [1] came out at 230 nM.
Still for that read-out and setting: next, `CCC(N)Cc1ccc(OC)c(OCCc2ccccc2)c1` (centres undefined) [1-(4-Methoxy-3-phenethyloxy-benzyl)-propylamine; hydrochloride]: greater than 1000 nM; `CCCCC(N)Cc1ccc(OC)c(OCCc2ccccc2)c1` (centres undefined) [1-(4-Methoxy-3-phenethyloxy-benzyl)-pentylamine]: 160 nM.
As for `CCCCCC(Cc1ccc(OC)c(OCCc2ccccc2)c1)NCCC` (centres undefined) [[1-(4-Methoxy-3-phenethyloxy-benzyl)-hexyl]-propyl-amine; hydrochloride], the results for the IC50 in experiment [3] and in experiment [1] were 110 nM and 1.5 nM, respectively.
With `CCCCCCCCC(Cc1ccc(OC)c(OCCc2ccccc2)c1)N(CCC)CCC` (centres undefined) [[1-(4-Methoxy-3-phenethyloxy-benzyl)-nonyl]-dipropyl-amine], the IC50 in experiment [1] is greater than 1000 nM.
The compound `CCCCCC(N)Cc1ccc(OC)c(OCCc2ccccc2)c1` (centres undefined) [1-(4-Methoxy-3-phenethyloxy-benzyl)-hexylamine; hydrochloride] displayed an IC50 in experiment [1] of 110 nM.
Regarding `CCCNC(CC)Cc1ccc(OC)c(OCCc2ccccc2)c1` (centres undefined) [[1-(4-Methoxy-3-phenethyloxy-benzyl)-propyl]-propyl-amine], the IC50 in experiment [3] came to 330 nM; in experiment [1] it was 8 nM.
As to `CCCCCCCCC(Cc1ccc(OC)c(OCCc2ccccc2)c1)NCCC` (centres undefined) [[1-(4-Methoxy-3-phenethyloxy-benzyl)-nonyl]-propyl-amine], in experiment [1], the IC50 amounted to 170 nM.
`CCCCCC(Cc1ccc(OC)c(OCCc2ccccc2)c1)N(CCC)CCC` (centres undefined) [[1-(4-Methoxy-3-phenethyloxy-benzyl)-hexyl]-dipropyl-amine; hydrochloride] yielded an IC50 in experiment [2] of 30 nM.
Turning to `CCCCCCC(N)Cc1ccc(OC)c(OCCc2ccccc2)c1` (centres undefined) [1-(4-Methoxy-3-phenethyloxy-benzyl)-heptylamine], the IC50 in experiment [1] came to 170 nM.
On the same count and under the same terms, next, `CCCN(CCC)C(C)Cc1ccc(OC)c(OCCc2ccccc2)c1` (centres undefined) [[2-(4-Methoxy-3-phenethyloxy-phenyl)-1-methyl-ethyl]-dipropyl-amine]: 12 nM.
